The values that follow are results of earlier work, collected in paper PMC5760531, “Action Potential Recording and Pro-arrhythmia Risk Analysis in Human Ventricular Trabeculae” (Frontiers in Physiology, 2018).

A word on the pIC50: it is −log10 of the IC50, conventionally taken in molar units.

For series [1] the following is noted: cited from earlier work.
A further series deals with hERG. The conditions noted are these: read-out: IC50 for hERG; previous experiments; ref Qu and Vargas, 2015; cited from earlier work. On the technique in general: hERG is a cardiac potassium channel; its block is linked to QT prolongation.

Structures are written as SMILES. pIC50: −log10 of the molar value.

For the molecule `Nc1nnc(-c2cccc(Cl)c2Cl)c(N)n1` [LAMOTRIGINE, Lamotrigine], the “Free ETPC” value in series [1] (human free (unbound) effective therapeutic plasma concentration used to calculate multiples) was 17 µM. Besides, the free therapeutic exposure entry in series [1] (human, ref Dixon et al., 2008) is on record as “approximately 17 μM”. Further, the negative-log IC50 (pIC50) in the series with hERG was 3.96.
